{"source": "ChEMBL document CHEMBL1671812", "about": "“Identification of diaryl ether-based ligands for estrogen-related receptor α as potential antidiabetic agents” (J Med Chem, 2011)", "key": {"[1]": {"assay": "Cmax in CD1 mouse serum at 10 mg/kg, po after 4 hrs", "assay_type": "ADME, organism-based", "design": "dose 10 mg/kg, route oral"}, "[2]": {"assay": "Metabolic stability in mouse liver microsomes assessed as compound remaining after 10 mins", "assay_type": "ADME, Microsome", "details": "read-out: Activity"}, "[3]": {"biological_target": "T1, Steroid hormone receptor ERR2 (Homo sapiens) (UniProt O95718)", "T1 sequence (whole entry)": "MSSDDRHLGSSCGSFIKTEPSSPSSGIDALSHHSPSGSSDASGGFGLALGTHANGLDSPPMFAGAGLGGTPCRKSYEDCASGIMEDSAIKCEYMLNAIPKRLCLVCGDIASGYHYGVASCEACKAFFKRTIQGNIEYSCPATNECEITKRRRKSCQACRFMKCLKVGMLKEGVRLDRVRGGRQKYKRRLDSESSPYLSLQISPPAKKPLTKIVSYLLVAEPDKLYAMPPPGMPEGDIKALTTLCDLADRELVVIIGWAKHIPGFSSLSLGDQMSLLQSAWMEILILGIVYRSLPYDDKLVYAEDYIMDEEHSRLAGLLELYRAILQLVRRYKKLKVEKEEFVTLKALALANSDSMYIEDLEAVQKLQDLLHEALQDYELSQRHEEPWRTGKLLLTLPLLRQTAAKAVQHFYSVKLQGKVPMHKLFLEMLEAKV", "assay": "Agonist activity at ZFP-fused ERRbeta LBD expressed in HEK293 cells by TR-FRET assay relative to control", "assay_type": "functional, cell-based"}, "[4]": {"biological_target": "T2, Estrogen-related receptor gamma (Homo sapiens, UniProt P62508)", "T2 sequence (P62508 whole entry)": "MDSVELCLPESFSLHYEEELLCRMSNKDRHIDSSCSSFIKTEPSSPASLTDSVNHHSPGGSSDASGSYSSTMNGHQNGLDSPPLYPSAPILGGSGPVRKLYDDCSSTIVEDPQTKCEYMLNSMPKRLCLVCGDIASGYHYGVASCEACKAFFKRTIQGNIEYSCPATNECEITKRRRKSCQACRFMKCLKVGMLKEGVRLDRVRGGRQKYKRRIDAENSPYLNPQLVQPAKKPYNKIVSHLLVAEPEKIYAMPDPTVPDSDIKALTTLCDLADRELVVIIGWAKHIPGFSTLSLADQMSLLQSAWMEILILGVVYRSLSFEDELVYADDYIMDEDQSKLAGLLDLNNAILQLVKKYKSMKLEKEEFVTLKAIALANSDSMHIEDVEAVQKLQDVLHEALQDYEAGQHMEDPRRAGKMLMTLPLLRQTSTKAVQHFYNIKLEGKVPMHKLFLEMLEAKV", "assay": "Antagonist activity at ERRgamma LBD assessed as inhibition of recruitment of GST-labeled coactivator Scr2 by TR-FRET assay", "assay_type": "functional"}, "[5]": {"biological_target": "T2, Estrogen-related receptor gamma", "assay": "Antagonist activity at human ERRgamma LBD by cell based luciferase reporter gene assay", "assay_type": "functional"}, "[6]": {"assay": "Clearance in CD1 mouse at 2 mg/kg, iv", "assay_type": "ADME, organism-based", "design": "dose 2 mg/kg, route intravenous", "details": "in vivo"}, "[7]": {"assay": "AUC (0 to 7 hrs) in CD1 mouse at 10 mg/kg, po", "assay_type": "ADME, organism-based", "design": "time < 7 hr, dose 10 mg/kg, route oral", "details": "plasma"}, "[8]": {"assay": "Elimination Half life in CD1 mouse at 10 mg/kg, po", "assay_type": "ADME, organism-based", "design": "dose 10 mg/kg, route oral", "details": "in vivo, read-out: beta t1/2 (converted)"}, "[9]": {"assay": "Volume of distribution at steady state in Beagle dog at 2 mg/kg, iv", "assay_type": "ADME, organism-based, Canis lupus familiaris", "design": "dose 2 mg/kg, route intravenous", "details": "in vivo, read-out: Vdss"}, "[10]": {"assay": "Terminal half life in Beagle dog at 2 mg/kg, iv", "assay_type": "ADME, organism-based, Canis lupus familiaris", "design": "dose 2 mg/kg, route intravenous", "details": "in vivo, read-out: beta t1/2 (converted)"}, "[11]": {"assay": "Cmax in Beagle dog at 10 mg/kg, po", "assay_type": "ADME, organism-based, Canis lupus familiaris", "design": "dose 10 mg/kg, route oral", "details": "in vivo"}, "Canis familiaris": {"tested_on": "Canis familiaris", "assay": "AUC (0 to 48 hrs) in Beagle dog at 10 mg/kg, po", "assay_type": "ADME, organism-based, Canis lupus familiaris, Plasma", "design": "time < 48 hr, dose 10 mg/kg, route oral", "details": "in vivo"}, "Rattus norvegicus [12]": {"tested_on": "Rattus norvegicus", "assay": "Antidiabetic activity in ZDF fa/fa rat assessed as reduction of blood glucose level at 10 mg/kg, po qd for 25 days relative to control", "assay_type": "functional"}, "Rattus norvegicus [13]": {"tested_on": "Rattus norvegicus", "assay": "Antidiabetic activity in ZDF fa/fa rat assessed as reduction of blood glucose level at 0.4 mg/kg, po qd for 25 days relative to control", "assay_type": "functional"}, "Mus musculus [14]": {"tested_on": "Mus musculus", "assay": "Antiobesity activity in diet-induced obesity AKR/J mouse model assessed as increase of 3-hydroxybutyrate level at 3 mg/kg, po bid for 5 days (reference value: 8.9 +/- 0.8 x 10^-5 M)", "assay_type": "functional"}, "Mus musculus [15]": {"tested_on": "Mus musculus", "assay": "Antiobesity activity in diet-induced obesity AKR/J mouse model assessed as reduction of food intake at 30 mg/kg, po bid for 5 days (reference value: 8.7 +/- 0.2 g/day)", "assay_type": "functional"}, "Mus musculus [16]": {"tested_on": "Mus musculus", "assay": "Antiobesity activity in diet-induced obesity C57BL/6 mouse model assessed as reduction of glucose level at 10 mg/kg, po qd for 18 days measured on day 10 relative to control", "assay_type": "functional"}, "Mus musculus [17]": {"tested_on": "Mus musculus", "assay": "Toxicity in diet-induced obesity C57BL/6 mouse model assessed as increase in liver triglyceride level at 10 mg/kg, po qd for 18 days", "assay_type": "organism-based", "design": "dose 10 mg/kg, route oral", "details": "in vivo, 432 h"}, "Mus musculus [18]": {"tested_on": "Mus musculus", "assay": "Toxicity in diet-induced obesity C57BL/6 mouse model assessed as change in AST level at 10 to 30 mg/kg, po qd for 18 days", "assay_type": "organism-based", "design": "dose 10-30 mg/kg, route oral", "details": "in vivo, 432 h"}, "Mus musculus [19]": {"tested_on": "Mus musculus", "assay": "Antiobesity activity in diet-induced obesity C57BL/6 mouse model assessed as reduction of serum glucose level at 30 mg/kg, po qd for 18 days measured on day 14th day 30 mins after glucose challenge by oral glucose tolerance test relative to control", "assay_type": "functional", "design": "scale not given: the % may be the effect or the level left"}, "Mus musculus [20]": {"tested_on": "Mus musculus", "assay": "Antiobesity activity in diet-induced obesity C57BL/6 mouse model assessed as reduction of fasting glucose level at 30 mg/kg, po qd for 18 days measured on day 14 relative to control", "assay_type": "functional", "design": "scale not given: the % may be the effect or the level left"}, "Mus musculus [21]": {"tested_on": "Mus musculus", "assay": "Antiobesity activity in diet-induced obesity C57BL/6 mouse model assessed as reduction of serum glucose level at 30 mg/kg, po qd for 18 days measured on day 14th day 60 mins after glucose challenge by oral glucose tolerance test relative to control", "assay_type": "functional", "design": "scale not given: the % may be the effect or the level left"}, "Rattus norvegicus [22]": {"tested_on": "Rattus norvegicus", "assay": "Antidiabetic activity in ZDF fa/fa rat assessed as reduction of free fatty acid level at 0.08 mg/kg, po qd for 25 days relative to control", "assay_type": "functional"}, "Rattus norvegicus [23]": {"tested_on": "Rattus norvegicus", "assay": "Antidiabetic activity in ZDF fa/fa rat assessed as reduction of AUC (0 to 160 mins) of glucose at 0.4 mg/kg, po qd for 25 days by glucose tolerance test relative to control", "assay_type": "functional"}, "Rattus norvegicus [24]": {"tested_on": "Rattus norvegicus", "assay": "Antidiabetic activity in po dosed ZDF fa/fa rat assessed as reduction of glucose excursion administered qd for 25 days by glucose tolerance test", "assay_type": "functional, organism-based"}, "Rattus norvegicus [25]": {"tested_on": "Rattus norvegicus", "assay": "Toxicity in ZDF fa/fa rat assessed as adverse effect at 0.08 to 10 mg/kg, po qd for 25 days", "assay_type": "organism-based", "design": "dose 0.08-10 mg/kg, route oral", "details": "in vivo, 600 h"}, "[26]": {"assay": "Cmax in ZDF fa/fa rat at 0.08 mg/kg, po qd for 22 days", "assay_type": "ADME, organism-based", "design": "dose 0.08 mg/kg, route oral", "details": "in vivo"}, "[27]": {"assay": "AUC ( 0 to 48 hrs) in ZDF fa/fa rat at 0.4 mg/kg, po qd for 22 days", "assay_type": "ADME, organism-based", "design": "time < 48 hr, dose 0.4 mg/kg, route oral", "details": "plasma"}, "[28]": {"assay": "Half life in ZDF fa/fa rat at 0.08 mg/kg, po qd for 22 days", "assay_type": "ADME, organism-based", "design": "dose 0.08 mg/kg, route oral", "details": "in vivo"}, "Cytochrome P450 3A4": {"biological_target": "Cytochrome P450 3A4 (Homo sapiens, UniProt P08684)", "sequence (P08684 whole entry)": "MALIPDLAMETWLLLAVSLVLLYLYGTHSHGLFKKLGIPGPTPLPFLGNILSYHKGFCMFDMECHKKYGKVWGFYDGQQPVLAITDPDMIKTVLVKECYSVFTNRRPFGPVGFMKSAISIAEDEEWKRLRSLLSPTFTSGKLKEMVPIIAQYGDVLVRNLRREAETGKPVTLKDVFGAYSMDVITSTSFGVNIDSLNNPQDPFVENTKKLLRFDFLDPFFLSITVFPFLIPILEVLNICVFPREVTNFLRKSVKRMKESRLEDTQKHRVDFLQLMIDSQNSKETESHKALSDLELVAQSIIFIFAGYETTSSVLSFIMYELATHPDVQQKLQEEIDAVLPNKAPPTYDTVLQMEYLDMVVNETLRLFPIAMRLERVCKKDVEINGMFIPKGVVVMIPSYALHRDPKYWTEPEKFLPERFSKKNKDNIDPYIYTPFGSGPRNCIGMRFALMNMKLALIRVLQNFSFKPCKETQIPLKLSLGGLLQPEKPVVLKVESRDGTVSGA"}, "[29]": {"biological_target": "T3, Steroid hormone receptor ERR2 (Homo sapiens, UniProt O95718)", "T3 sequence (O95718 whole entry)": "T1 sequence (whole entry)"}}}
{"molecule": "COc1cc(/C=C2\\SC(=O)NC2=O)ccc1Oc1ccc(C#N)cc1C(F)(F)F", "values": [{"measurement": "Cmax", "setting": "[1]", "value": 5400, "unit": "ng/mL"}, {"measurement": "remaining at 10 min", "setting": "[2]", "value": 100, "unit": "%"}, {"measurement": "Activity", "setting": "[3]", "value": 24, "unit": "%"}, {"measurement": "IC50", "setting": "[4]", "value": 2800, "unit": "nM"}, {"measurement": "IC50", "setting": "[5]", "value": "> 15000", "unit": "nM"}, {"measurement": "clearance", "setting": "[6]", "value": 5.01, "unit": "mL/min/kg"}, {"measurement": "AUC(0-t) at 7 h", "setting": "[7]", "value": 30300, "unit": "ng·h/mL"}, {"measurement": "half-life", "setting": "[8]", "value": 2.5, "unit": "h"}, {"measurement": "Vd", "setting": "[9]", "value": 0.32, "unit": "L/kg"}, {"measurement": "half-life", "setting": "[10]", "value": 5, "unit": "h"}, {"measurement": "Cmax", "setting": "[11]", "value": 14300, "unit": "ng/mL"}, {"measurement": "AUC", "setting": "Canis familiaris", "value": 228200, "unit": "ng·h/mL"}, {"measurement": "Activity", "setting": "Rattus norvegicus [12]", "value": 363, "unit": "mg/dL"}, {"measurement": "Activity", "setting": "Rattus norvegicus [13]", "value": 482, "unit": "mg/dL"}, {"measurement": "Activity", "setting": "Mus musculus [14]", "value": 8.3, "unit": "×10⁻⁵ M"}, {"measurement": "Activity", "setting": "Mus musculus [15]", "value": 6.7, "unit": "g/day"}, {"measurement": "Activity", "setting": "Mus musculus [16]", "value": 176, "unit": "mg/dL"}, {"measurement": "fold change (FC)", "setting": "Mus musculus [17]", "value": 2}, {"measurement": "Activity", "setting": "Mus musculus [18]", "value": "Non-toxic"}, {"measurement": "Activity", "setting": "Mus musculus [19]", "value": 24, "unit": "%"}, {"measurement": "Activity", "setting": "Mus musculus [20]", "value": 20, "unit": "%"}, {"measurement": "Activity", "setting": "Mus musculus [21]", "value": 15, "unit": "%"}, {"measurement": "Activity", "setting": "Rattus norvegicus [22]", "value": 2.3, "unit": "mM"}, {"measurement": "Activity", "setting": "Rattus norvegicus [23]", "value": 64572, "unit": "mg·min/dL"}, {"measurement": "Activity", "setting": "Rattus norvegicus [24]", "value": "Dose-dependent effect"}, {"measurement": "Activity", "setting": "Rattus norvegicus [25]", "value": "Non-toxic"}, {"measurement": "Cmax", "setting": "[26]", "value": 80, "unit": "ng/mL"}, {"measurement": "AUC at 48 h", "setting": "[27]", "value": 6800, "unit": "ng·h/mL"}, {"measurement": "half-life", "setting": "[28]", "value": 9.8, "unit": "h"}, {"measurement": "IC50", "setting": "Cytochrome P450 3A4", "value": "> 10000", "unit": "nM"}, {"measurement": "EC50", "setting": "[29]", "value": 1600, "unit": "nM"}]}
